From ChEMBL document CHEMBL3885881, “DrugMatrix”

Organism: Rattus norvegicus
Assay: DrugMatrix - Regimen: Daily Repeat
Format: toxicity, organism-based, Sprague-Dawley
Set-up: regimen Daily Repeat, gender Male, age 6-8 weeks
Conditions: in vivo, po, 1868 mg/kg, route oral GAVAGE, dose level High, vehicle .5 % CMC; for PLATELET COUNT / ABSOLUTE BASOPHIL / ABSOLUTE EOSINOPHIL / ABSOLUTE LYMPHOCYTE / ABSOLUTE MONOCYTE / ABSOLUTE SEGMENTED NEUTROPHIL / BASOPHIL / EOSINOPHIL / ERYTHROCYTE COUNT / HEMATOCRIT / HEMOGLOBIN / LEUKOCYTE COUNT / LYMPHOCYTE / MEAN CORPUSCULAR HEMOGLOBIN / MEAN CORPUSCULAR HEMOGLOBIN CONCENTRATION / MEAN CORPUSCULAR VOLUME / MONOCYTE / NEUTROPHIL / NUCLEATED RED BLOOD CELLS: tissue Blood; for ALANINE AMINOTRANSFERASE / ALBUMIN / ALKALINE PHOSPHATASE / ASPARTATE AMINOTRANSFERASE / BLOOD UREA NITROGEN / CARBON DIOXIDE / CHLORIDE / CHOLESTEROL / CREATININE / GLUCOSE / LACTATE DEHYDROGENASE / LIPASE / PHOSPHORUS / POTASSIUM / SODIUM / TOTAL BILIRUBIN / URIC ACID / TOTAL PROTEIN: tissue Plasma

CC(=O)OCc1ccccc1 [E1501]
PLATELET COUNT (120 h, time 5 day): 934.67 x10E3/uL
ALANINE AMINOTRANSFERASE (120 h, time 5 day): 127 u/L
ALBUMIN (120 h, time 5 day): 4.53 G/DL
ALKALINE PHOSPHATASE (120 h, time 5 day): 336 u/L
ASPARTATE AMINOTRANSFERASE (120 h, time 5 day): 386 u/L
BLOOD UREA NITROGEN (120 h, time 5 day): 22 mg/dL
CARBON DIOXIDE (120 h, time 5 day): 30 mmol/L
CHLORIDE (120 h, time 5 day): 99.67 MEQ/L
CHOLESTEROL (120 h, time 5 day): 65 mg/dL
CREATININE (120 h, time 5 day): 0.28 mg/dL
GLUCOSE (120 h, time 5 day): 167 mg/dL
LACTATE DEHYDROGENASE (120 h, time 5 day): 574 u/L
LIPASE (120 h, time 5 day): 9.67 u/L
PHOSPHORUS (120 h, time 5 day): 13.07 mg/dL
POTASSIUM (120 h, time 5 day): 6.24 MEQ/L
SODIUM (120 h, time 5 day): 148.47 MEQ/L
TOTAL BILIRUBIN (120 h, time 5 day): 0.17 mg/dL
URIC ACID (120 h, time 5 day): 1.83 mg/dL
ABSOLUTE BASOPHIL ([…], time 11 day): 0 CELLS/uL
ABSOLUTE EOSINOPHIL ([…], time 11 day): 0 CELLS/uL
ABSOLUTE LYMPHOCYTE ([…], time 11 day): 4840 CELLS/uL
ABSOLUTE MONOCYTE ([…], time 11 day): 440 CELLS/uL
ABSOLUTE SEGMENTED NEUTROPHIL ([…], time 11 day): 3520 CELLS/uL
BASOPHIL ([…], time 11 day): 0%
EOSINOPHIL ([…], time 11 day): 0%
ERYTHROCYTE COUNT ([…], time 11 day): 6.27 x10E6/uL
HEMATOCRIT ([…], time 11 day): 37.6%
HEMOGLOBIN ([…], time 11 day): 13.8 G/DL
LEUKOCYTE COUNT ([…], time 11 day): 8.8 x10E3/uL
LYMPHOCYTE ([…], time 11 day): 55%
MEAN CORPUSCULAR HEMOGLOBIN ([…], time 11 day): 22 pg
MEAN CORPUSCULAR HEMOGLOBIN CONCENTRATION ([…], time 11 day): 36.7 G/DL
MEAN CORPUSCULAR VOLUME ([…], time 11 day): 60 fL
MONOCYTE ([…], time 11 day): 5%
NEUTROPHIL ([…], time 11 day): 40%
NUCLEATED RED BLOOD CELLS ([…], time 11 day): 0 /100WBC
PLATELET COUNT ([…], time 11 day): 822 x10E3/uL
ABSOLUTE BASOPHIL ([…], time 14 day): 0 CELLS/uL
ABSOLUTE EOSINOPHIL ([…], time 14 day): 388 CELLS/uL
ABSOLUTE LYMPHOCYTE ([…], time 14 day): 14397 CELLS/uL
ABSOLUTE MONOCYTE ([…], time 14 day): 529.5 CELLS/uL
ABSOLUTE SEGMENTED NEUTROPHIL ([…], time 14 day): 1785.5 CELLS/uL
BASOPHIL ([…], time 14 day): 0%
EOSINOPHIL ([…], time 14 day): 2%
ERYTHROCYTE COUNT ([…], time 14 day): 6.34 x10E6/uL
HEMATOCRIT ([…], time 14 day): 38%
HEMOGLOBIN ([…], time 14 day): 13.85 G/DL
LEUKOCYTE COUNT ([…], time 14 day): 17.1 x10E3/uL
LYMPHOCYTE ([…], time 14 day): 85%
MEAN CORPUSCULAR HEMOGLOBIN ([…], time 14 day): 21.9 pg
MEAN CORPUSCULAR HEMOGLOBIN CONCENTRATION ([…], time 14 day): 36.35 G/DL
MEAN CORPUSCULAR VOLUME ([…], time 14 day): 60.15 fL
MONOCYTE ([…], time 14 day): 3.5%
NEUTROPHIL ([…], time 14 day): 9.5%
NUCLEATED RED BLOOD CELLS ([…], time 14 day): 0 /100WBC
PLATELET COUNT ([…], time 14 day): 722 x10E3/uL
ALANINE AMINOTRANSFERASE ([…], time 11 day): 128 u/L
ALBUMIN ([…], time 11 day): 3.9 G/DL
ALKALINE PHOSPHATASE ([…], time 11 day): 284 u/L
ASPARTATE AMINOTRANSFERASE ([…], time 11 day): 640 u/L
BLOOD UREA NITROGEN ([…], time 11 day): 44 mg/dL
CARBON DIOXIDE ([…], time 11 day): 31 mmol/L
CHLORIDE ([…], time 11 day): 95 MEQ/L
CHOLESTEROL ([…], time 11 day): 70 mg/dL
CREATININE ([…], time 11 day): 0.26 mg/dL
GLUCOSE ([…], time 11 day): 191 mg/dL
LACTATE DEHYDROGENASE ([…], time 11 day): 656 u/L
LIPASE ([…], time 11 day): 9 u/L
PHOSPHORUS ([…], time 11 day): 14.5 mg/dL
POTASSIUM ([…], time 11 day): 4.9 MEQ/L
SODIUM ([…], time 11 day): 146.3 MEQ/L
TOTAL BILIRUBIN ([…], time 11 day): 0.1 mg/dL
TOTAL PROTEIN ([…], time 11 day): 5.4 G/DL
URIC ACID ([…], time 11 day): 1.7 mg/dL
ALANINE AMINOTRANSFERASE ([…], time 14 day): 76.5 u/L
ALBUMIN ([…], time 14 day): 4.3 G/DL
ALKALINE PHOSPHATASE ([…], time 14 day): 267 u/L
ASPARTATE AMINOTRANSFERASE ([…], time 14 day): 238 u/L
BLOOD UREA NITROGEN ([…], time 14 day): 19 mg/dL
CARBON DIOXIDE ([…], time 14 day): 21.5 mmol/L
CHLORIDE ([…], time 14 day): 102.5 MEQ/L
CHOLESTEROL ([…], time 14 day): 79 mg/dL
CREATININE ([…], time 14 day): 0.27 mg/dL
GLUCOSE ([…], time 14 day): 207 mg/dL
LACTATE DEHYDROGENASE ([…], time 14 day): 251.5 u/L
LIPASE ([…], time 14 day): 9 u/L
PHOSPHORUS ([…], time 14 day): 11.95 mg/dL
POTASSIUM ([…], time 14 day): 5.28 MEQ/L
SODIUM ([…], time 14 day): 152.2 MEQ/L
TOTAL BILIRUBIN ([…], time 14 day): 0.25 mg/dL
TOTAL PROTEIN ([…], time 14 day): 6.5 G/DL
URIC ACID ([…], time 14 day): 1.95 mg/dL
